Laboratory results taken from patent publication US12493040B2, “Cancer detection method using sense of smell of nematode” (HIROTSU BIO SCIENCE INC., priority 2013, dated 2025).

Test system: RNAi-treated eri-1 (mg366) nematodes
Assay: RNAi screening of olfactory receptor genes: chemotaxis assay of RNAi-treated nematodes to odorants
Type: in vivo, Caenorhabditis elegans
Experimental: The RNAi assay was carried out by performing an RNAi method involving the feeding (feeding RNAi method) of eri-1 (mg366) (19), using an Ahringer library (37).
Nine adult eri-1 mutants were placed on an NGM plate containing isopropyl 1-D-1-thiogalactopyranoside (0.19 g/L), ampicillin (60 mg/L), and Escherichia coli (E. coli), and were then cultured for 4 days. Subsequently, the adult worms were used in a chemotaxis assay. The chemotaxis assay was carried out as previously reported (6, 17). In the chemotaxis assay, the present inventor has used 30 to 50 worms in each experiment in which 1 μl of 10^−3- or 10^−4-diluted odorant (low concentration), or 1 and 5 μl of undiluted odorants (high concentration) were used.
The z score and a control value in each single test from 2SD were calculated in all days (Table 3) or every day. The z score was used as a threshold indicating a great difference (−1.96 and 1.96, P<0.05). […] Accordingly, the present inventor has used the z score±1 (−0.96 and 0.96, P<0.33) as a weaker threshold.

[1] = Control nematodes, repellent or high concentration of attractant
[2] = srh-4 RNAi-treated nematodes, repellent or high concentration of attractant
[3] = srh-7 RNAi-treated nematodes, repellent or high concentration of attractant
[4] = srh-8 RNAi-treated nematodes, repellent or high concentration of attractant
[5] = srh-10 RNAi-treated nematodes, repellent or high concentration of attractant
[6] = srh-11 RNAi-treated nematodes, repellent or high concentration of attractant
[7] = srh-15 RNAi-treated nematodes, repellent or high concentration of attractant
[8] = srh-16 RNAi-treated nematodes, repellent or high concentration of attractant
[9] = srh-18 RNAi-treated nematodes, repellent or high concentration of attractant
[10] = srh-19 RNAi-treated nematodes, repellent or high concentration of attractant
[11] = srh-22 RNAi-treated nematodes, repellent or high concentration of attractant
[12] = srh-23 RNAi-treated nematodes, repellent or high concentration of attractant
[13] = srh-24 RNAi-treated nematodes, repellent or high concentration of attractant
[14] = srh-25 RNAi-treated nematodes, repellent or high concentration of attractant
[15] = srh-27 RNAi-treated nematodes, repellent or high concentration of attractant
[16] = srh-28 RNAi-treated nematodes, repellent or high concentration of attractant
[17] = srh-36 RNAi-treated nematodes, repellent or high concentration of attractant
[18] = srh-37 RNAi-treated nematodes, repellent or high concentration of attractant
[19] = srh-39 RNAi-treated nematodes, repellent or high concentration of attractant
[20] = srh-40 RNAi-treated nematodes, repellent or high concentration of attractant
[21] = srh-41 RNAi-treated nematodes, repellent or high concentration of attractant
[22] = srh-44 RNAi-treated nematodes, repellent or high concentration of attractant
[23] = srh-45 RNAi-treated nematodes, repellent or high concentration of attractant
[24] = srh-46 RNAi-treated nematodes, repellent or high concentration of attractant
[25] = srh-48 RNAi-treated nematodes, repellent or high concentration of attractant
[26] = srh-49 RNAi-treated nematodes, repellent or high concentration of attractant
[27] = srh-50 RNAi-treated nematodes, repellent or high concentration of attractant
[28] = srh-51 RNAi-treated nematodes, repellent or high concentration of attractant
[29] = srh-52 RNAi-treated nematodes, repellent or high concentration of attractant
[30] = srh-55 RNAi-treated nematodes, repellent or high concentration of attractant
[31] = srh-59 RNAi-treated nematodes, repellent or high concentration of attractant
[32] = srh-60 RNAi-treated nematodes, repellent or high concentration of attractant
[33] = srh-61 RNAi-treated nematodes, repellent or high concentration of attractant
[34] = srh-67 RNAi-treated nematodes, repellent or high concentration of attractant
[35] = srh-68 RNAi-treated nematodes, repellent or high concentration of attractant
[36] = srh-69 RNAi-treated nematodes, repellent or high concentration of attractant
[37] = srh-70 RNAi-treated nematodes, repellent or high concentration of attractant
[38] = srh-71 RNAi-treated nematodes, repellent or high concentration of attractant
[39] = srh-72 RNAi-treated nematodes, repellent or high concentration of attractant
[40] = srh-74 RNAi-treated nematodes, repellent or high concentration of attractant
[41] = srh-75 RNAi-treated nematodes, repellent or high concentration of attractant
[42] = srh-77 RNAi-treated nematodes, repellent or high concentration of attractant
[43] = srh-79 RNAi-treated nematodes, repellent or high concentration of attractant
[44] = srh-80 RNAi-treated nematodes, repellent or high concentration of attractant
[45] = srh-82 RNAi-treated nematodes, repellent or high concentration of attractant
[46] = srh-83 RNAi-treated nematodes, repellent or high concentration of attractant
[47] = srh-97 RNAi-treated nematodes, repellent or high concentration of attractant
[48] = srh-99 RNAi-treated nematodes, repellent or high concentration of attractant
[49] = srh-100 RNAi-treated nematodes, repellent or high concentration of attractant
[50] = srh-104 RNAi-treated nematodes, repellent or high concentration of attractant
[51] = srh-105 RNAi-treated nematodes, repellent or high concentration of attractant
[52] = srh-109 RNAi-treated nematodes, repellent or high concentration of attractant
[53] = srh-111 RNAi-treated nematodes, repellent or high concentration of attractant

Structure (SMILES): O=Cc1ccccc1 [High Bz]
- chemotaxis index [1]: −0.91 ± 0.007
- chemotaxis index [2]: −0.75
- chemotaxis index [3]: −1.00
- chemotaxis index [4]: −0.93
- chemotaxis index [5]: −0.95
- chemotaxis index [6]: −0.78
- chemotaxis index [7]: −0.41
- chemotaxis index [8]: −0.88
- chemotaxis index [9]: −0.88
- chemotaxis index [10]: −1.00
- chemotaxis index [11]: −0.80
- chemotaxis index [12]: −0.88
- chemotaxis index [13]: −1.00
- chemotaxis index [14]: −0.73
- chemotaxis index [15]: 0.96
- chemotaxis index [16]: −0.75
- chemotaxis index [17]: −0.95
- chemotaxis index [18]: −1.00
- chemotaxis index [19]: −0.84
- chemotaxis index [20]: −0.87
- chemotaxis index [21]: −0.89
- chemotaxis index [22]: −0.48
- chemotaxis index [23]: −0.96
- chemotaxis index [24]: −0.82
- chemotaxis index [25]: −0.80
- chemotaxis index [26]: −0.76
- chemotaxis index [27]: −1.00
- chemotaxis index [28]: −0.96
- chemotaxis index [29]: −1.00
- chemotaxis index [30]: −0.98
- chemotaxis index [31]: −0.91
- chemotaxis index [32]: −0.98
- chemotaxis index [33]: −0.92
- chemotaxis index [34]: −0.97
- chemotaxis index [35]: −0.87
- chemotaxis index [36]: −0.87
- chemotaxis index [37]: −0.94
- chemotaxis index [38]: −0.91
- chemotaxis index [39]: −0.98
- chemotaxis index [40]: −0.95
- chemotaxis index [41]: −0.94
- chemotaxis index [42]: −0.89
- chemotaxis index [43]: −0.80
- chemotaxis index [44]: −0.87
- chemotaxis index [45]: −0.88
- chemotaxis index [46]: −0.45
- chemotaxis index [47]: −0.86
- chemotaxis index [48]: −0.74
- chemotaxis index [49]: −0.94
- chemotaxis index [50]: −0.91
- chemotaxis index [51]: −0.96
- chemotaxis index [52]: −0.87
- chemotaxis index [53]: −0.79

Structure (SMILES): CC(C)CCO [High Iaa]
- chemotaxis index [1]: −0.84 ± 0.011
- chemotaxis index [2]: −0.73
- chemotaxis index [3]: −0.86
- chemotaxis index [4]: −0.94
- chemotaxis index [5]: −0.96
- chemotaxis index [6]: −0.79
- chemotaxis index [7]: −0.60
- chemotaxis index [8]: −0.74
- chemotaxis index [9]: −0.78
- chemotaxis index [10]: −0.89
- chemotaxis index [11]: −0.81
- chemotaxis index [12]: −0.88
- chemotaxis index [13]: −1.00
- chemotaxis index [14]: 0.13
- chemotaxis index [15]: −0.92
- chemotaxis index [16]: −0.64
- chemotaxis index [17]: −0.59
- chemotaxis index [18]: −0.69
- chemotaxis index [19]: −0.79
- chemotaxis index [20]: −0.88
- chemotaxis index [21]: −0.56
- chemotaxis index [22]: 0.00
- chemotaxis index [23]: −0.97
- chemotaxis index [24]: −0.91
- chemotaxis index [25]: −0.67
- chemotaxis index [26]: −0.59
- chemotaxis index [27]: −0.93
- chemotaxis index [28]: −0.85
- chemotaxis index [29]: −0.96
- chemotaxis index [30]: −0.95
- chemotaxis index [31]: −0.87
- chemotaxis index [32]: −0.77
- chemotaxis index [33]: −0.82
- chemotaxis index [34]: −0.96
- chemotaxis index [35]: −0.67
- chemotaxis index [36]: −0.94
- chemotaxis index [37]: −0.40
- chemotaxis index [38]: −0.76
- chemotaxis index [39]: −0.55
- chemotaxis index [40]: −0.51
- chemotaxis index [41]: −0.50
- chemotaxis index [42]: −0.68
- chemotaxis index [43]: −0.22
- chemotaxis index [44]: −0.31
- chemotaxis index [45]: −0.53
- chemotaxis index [46]: 0.34
- chemotaxis index [47]: −0.51
- chemotaxis index [48]: −0.33
- chemotaxis index [49]: −0.64
- chemotaxis index [50]: −0.48
- chemotaxis index [51]: −0.76
- chemotaxis index [52]: −0.68
- chemotaxis index [53]: −0.08

Structure (SMILES): O=Cc1ccccc1 [benzaldehyde]
- chemotaxis index (srh-10 RNAi-treated nematodes, low concentration of attractant): 0.12
- chemotaxis index (srh-11 RNAi-treated nematodes, low concentration of attractant): −0.11
- chemotaxis index (srh-15 RNAi-treated nematodes, low concentration of attractant): −0.13
- chemotaxis index (srh-16 RNAi-treated nematodes, low concentration of attractant): 0.83
- chemotaxis index (srh-18 RNAi-treated nematodes, low concentration of attractant): 0.05
- chemotaxis index (srh-19 RNAi-treated nematodes, low concentration of attractant): 0.64
- chemotaxis index (srh-22 RNAi-treated nematodes, low concentration of attractant): 0.28
- chemotaxis index (srh-23 RNAi-treated nematodes, low concentration of attractant): 0.54
- chemotaxis index (srh-24 RNAi-treated nematodes, low concentration of attractant): 0.69
- chemotaxis index (srh-214 RNAi-treated nematodes, low concentration of attractant): 0.57
- chemotaxis index (srh-216 RNAi-treated nematodes, low concentration of attractant): 0.47
- chemotaxis index (srh-217 RNAi-treated nematodes, low concentration of attractant): 0.76
- chemotaxis index (srh-220 RNAi-treated nematodes, low concentration of attractant): 0.61
- chemotaxis index (srh-222 RNAi-treated nematodes, low concentration of attractant): 0.76
- chemotaxis index (srh-223 RNAi-treated nematodes, low concentration of attractant): 0.49
- chemotaxis index (srh-227 RNAi-treated nematodes, low concentration of attractant): 0.56
- chemotaxis index (srh-229 RNAi-treated nematodes, low concentration of attractant): −0.21
- chemotaxis index (srh-233 RNAi-treated nematodes, low concentration of attractant): −0.11
- chemotaxis index (srh-235 RNAi-treated nematodes, low concentration of attractant): 0.32
- chemotaxis index (srh-236 RNAi-treated nematodes, low concentration of attractant): 0.31
- chemotaxis index (srh-239 RNAi-treated nematodes, low concentration of attractant): 0.34
- chemotaxis index (srh-241 RNAi-treated nematodes, low concentration of attractant): 0.66
- chemotaxis index (srh-243 RNAi-treated nematodes, low concentration of attractant): 0.30
- chemotaxis index (srh-244 RNAi-treated nematodes, low concentration of attractant): 0.43
- chemotaxis index (srh-247 RNAi-treated nematodes, low concentration of attractant): 0.40
- chemotaxis index (srh-250 RNAi-treated nematodes, low concentration of attractant): 0.40
- chemotaxis index (srh-251 RNAi-treated nematodes, low concentration of attractant): 0.70
- chemotaxis index (srh-252 RNAi-treated nematodes, low concentration of attractant): 0.71
- chemotaxis index (srh-258 RNAi-treated nematodes, low concentration of attractant): 0.40
- chemotaxis index (srh-261 RNAi-treated nematodes, low concentration of attractant): 0.45
- chemotaxis index (srh-264 RNAi-treated nematodes, low concentration of attractant): 0.38
- chemotaxis index (srh-266 RNAi-treated nematodes, low concentration of attractant): 0.32
- chemotaxis index (srh-274 RNAi-treated nematodes, low concentration of attractant): 0.45
- chemotaxis index (srh-275 RNAi-treated nematodes, low concentration of attractant): 0.16
- chemotaxis index (srh-276 RNAi-treated nematodes, low concentration of attractant): 0.56
- chemotaxis index (srh-277 RNAi-treated nematodes, low concentration of attractant): 0.49
- chemotaxis index (srh-279 RNAi-treated nematodes, low concentration of attractant): 0.34
- chemotaxis index (srh-281 RNAi-treated nematodes, low concentration of attractant): 0.33
- chemotaxis index (srh-282 RNAi-treated nematodes, low concentration of attractant): 0.24
- chemotaxis index (srh-283 RNAi-treated nematodes, low concentration of attractant): 0.21
- chemotaxis index (srh-284 RNAi-treated nematodes, low concentration of attractant): 0.29
- chemotaxis index (srh-291 RNAi-treated nematodes, low concentration of attractant): 0.58
- chemotaxis index (srh-292 RNAi-treated nematodes, low concentration of attractant): 0.48
- chemotaxis index (srh-293 RNAi-treated nematodes, low concentration of attractant): 0.31
- chemotaxis index (srh-297 RNAi-treated nematodes, low concentration of attractant): 0.63
- chemotaxis index (srh-298 RNAi-treated nematodes, low concentration of attractant): 0.66
- chemotaxis index (srh-308 RNAi-treated nematodes, low concentration of attractant): 0.14
